# Assay results published in article PMC7111628 (Antiviral Research, 2020).
# Like-named read-outs stand apart in the source and are kept apart here.
# Experiments:
# [1] = tested on: SARS-CoV helicase protein; conditions: cited from earlier work
# [2] = tested on: HSV-1; assay: Time-of-addition assay, HSV-1; conditions: Vero cells, 24 h p.i.
# [3] = tested on: HSV-1 (F strain); assay: Virus yield in culture media by plaque assay, HSV-1; format: cell-based, Herpes simplex virus type 1; conditions: Vero cells; concentration >1.25 μM; 24 h p.i.; p < 0.05
# [4] = tested on: gD protein; assay: Western blot of virus gD expression during 5-7 h p.i.; format: cell-based, Herpes simplex virus type 2; conditions: treatment during 5-7 h p.i.
# [5] = tested on: HVEM and nectin-1; assay: DARTS assay, cellular surface receptors of HSV-1; format: binding; conditions: 60 μM; HSV-1 infected Vero cell lysates
# [6] = tested on: Vero cells; assay: MTT cytotoxicity assay in Vero cells; format: cell-based; conditions: 50 to 400 μM, 24 h incubation
# [7] = tested on: EGFR, PI3K and Akt proteins; assay: Western blot of total EGFR, PI3K and Akt in HSV-2 infected Vero cells; format: cell-based; conditions: 2.5, 5, 10, 20 μM for 2 h
# [8] = MTT cytotoxicity assay in HeLa cells; format: cell-based; conditions: human, CC50, HeLa cells, MTT assay, concentration required to reduce cell viability by 50%
# [9] = tested on: HeLa cells; assay: MTT cytotoxicity assay in HeLa cells; format: cell-based; conditions: 50 to 400 μM, MTT, 24 h incubation
# [10] = tested on: HSV-2; assay: Plaque reduction assay, HSV-2; format: cell-based, Herpes simplex virus type 2; conditions: pretreatment of HSV with 1.25-20 μM; Vero cells
# [11] = tested on: HSV-2 gD mRNA; assay: Real-time RT-PCR of gD mRNA, HSV-2 infected Vero cells; format: cell-based, Herpes simplex virus type 2; conditions: 5, 10, 20 μM; HSV-2 (MOI = 1.0) infected Vero cells, 8 h; p < 0.05
# [12] = tested on: EGFR/PI3K/Akt pathway; format: cell-based; conditions: 5, 10, 20 μM; Vero cells treated with HSV-1 gD protein (2 μg/ml); vs gD treated control, p < 0.05
# [13] = tested on: EGFR/PI3K/Akt pathway; assay: Western blot of phosphorylated EGFR, PI3K and Akt in non-infected Vero cells; format: cell-based; conditions: 2.5, 5, 10, 20 μM for 2 h
# [14] = biological target: T1, HSV-1 gD protein (Human herpesvirus 1, UniProt Q69091); assay: DARTS assay, gD; format: binding, Herpes simplex virus type 1; conditions: 60 μM; pronase 3 μg/ml; HSV-1 infected Vero cell lysates
# T1 sequence (Q69091 26-394): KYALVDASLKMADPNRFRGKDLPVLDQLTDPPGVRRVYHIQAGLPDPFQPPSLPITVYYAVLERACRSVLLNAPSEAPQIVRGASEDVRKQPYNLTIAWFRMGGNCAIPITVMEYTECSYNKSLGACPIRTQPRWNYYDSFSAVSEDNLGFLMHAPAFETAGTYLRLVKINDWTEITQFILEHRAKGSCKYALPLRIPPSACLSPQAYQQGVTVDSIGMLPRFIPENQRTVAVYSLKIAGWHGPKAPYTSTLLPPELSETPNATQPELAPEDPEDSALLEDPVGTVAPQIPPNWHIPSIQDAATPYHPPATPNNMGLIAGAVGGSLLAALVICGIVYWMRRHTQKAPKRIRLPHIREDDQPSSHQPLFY
# [15] = tested on: HSV-1; conditions: Vero cells; ref Lyu et al., 2005; cited from earlier work
# [16] = tested on: phosphorylated Akt; assay: Western blot of phosphorylated Akt in HSV-2 infected cells; format: cell-based; conditions: HSV-2 (MOI = 1.0) infected cells, virus control about 12.1
# [17] = tested on: HSV-2; assay: Time-of-addition assay, HSV-2; conditions: Vero cells, 24 h p.i.
# [18] = tested on: phosphorylated PI3K; assay: Western blot of phosphorylated PI3K in HSV-2 infected cells; format: cell-based; conditions: HSV-2 (MOI = 1.0) infected cells, virus control about 1.9
# [19] = tested on: Hep-2 cells; assay: MTT cytotoxicity assay in Hep-2 cells; format: cell-based; conditions: 50 to 400 μM, MTT, 24 h incubation
# [20] = MTT cytotoxicity assay in Hep-2 cells; format: cell-based; conditions: human, CC50, Hep-2 cells, MTT assay, concentration required to reduce cell viability by 50%
# [21] = biological target: T1, HSV-1 gD protein; assay: HSV-1 gD binding to Vero cells, cell ELISA; format: cell-based, Herpes simplex virus type 1
# [22] = tested on: HSV-1 (F strain); assay: Murine intranasal model of HSV pneumonia and encephalitis; format: in vivo, BALB/c mice; conditions: for survival by day 14 post infection: placebo 20%
# [23] = tested on: HSV-1; assay: Plaque reduction assay, HSV-1; format: cell-based, Herpes simplex virus type 1; conditions: pretreatment of HSV with 1.25-20 μM; Vero cells
# [24] = tested on: gB, gC, and gH/gL proteins; assay: DARTS assay, other virus surface glycoproteins; format: binding, Herpes simplex virus type 1; conditions: 60 μM; HSV-1 infected Vero cell lysates
# [25] = tested on: HSV-1 (F strain); assay: Indirect immunofluorescence assay of ICP27 in HSV-1 infected Vero cells; conditions: pretreatment of virus with 10 μM before infection
# [26] = tested on: phosphorylated EGFR; assay: Western blot of phosphorylated EGFR in HSV-2 infected cells; format: cell-based; conditions: HSV-2 (MOI = 1.0) infected cells, virus control about 2.4
# [27] = biological target: T1, HSV-1 gD protein; assay: Surface plasmon resonance; format: binding, Herpes simplex virus type 1
# [28] = tested on: HSV-1 gD mRNA; assay: Real-time RT-PCR of gD mRNA, HSV-1 infected Vero cells; format: cell-based, Herpes simplex virus type 1; conditions: 5, 10, 20 μM; HSV-1 (MOI = 1.0) infected Vero cells, 8 h; p < 0.05
# [29] = tested on: HSV-2 (333 strain); assay: Virus yield in culture media by plaque assay, HSV-2; format: cell-based, Herpes simplex virus type 2; conditions: Vero cells; concentration >1.25 μM; 24 h p.i.; p < 0.05
# [30] = tested on: HIV reverse transcriptase; conditions: ref Pasetto et al., 2014; cited from earlier work
# [31] = tested on: HSV-2; assay: Cell fusion inhibition assay; format: cell-based, Herpes simplex virus type 2; conditions: 30, 15 μM during 5-7 h p.i.; HSV-2 (MOI = 3.0) infected Vero cells
# [32] = tested on: HSV-1 (F strain); assay: CPE inhibition assay, HSV-1; conditions: for IC50: read-out: HSV-1 IC50
# [33] = tested on: HSV-2 (333 strain); assay: CPE inhibition assay, HSV-2; conditions: for IC50: read-out: HSV-2 IC50
# [34] = 20 μM for 1 h before infection, p < 0.01
# [35] = 10 mg·kg-1 intraperitoneal, day 4 p.i.
structure (smiles),measurement,setting,value
"O=c1cc(-c2ccc(O)cc2)oc2cc(O)c(O)c(O)c12 [scutellarein, reference compound]",inhibition of SARS-CoV helicase protein,[1],potently inhibited
"O=c1c(O)c(-c2cc(O)c(O)c(O)c2)oc2cc(O)cc(O)c12 [Myricetin, 3,5,7-trihydroxy-2-(3,4,5-trihydroxyphenyl)-4-benzopyrone]","virus titers, pretreatment of virus",[2]; [34],significantly reduced the virus titers
same,"virus titers, pretreatment of cells",[2]; 20 μM,did not significantly reduce virus titers
same,"virus multiplication, treatment after adsorption","[2]; 20 μM, p < 0.05",obvious inhibition on virus multiplication
same,virus titers in culture media,[3],significantly reduced the virus titers
same,expression of virus surface glycoproteins such as gD protein,[4],did not obviously influence the expression
same,protection of HVEM and nectin-1 from protease digestion,[5],could also not be protected
same,cytotoxicity,[6],no significant cytotoxicity
same,"total expression levels of EGFR, PI3K and Akt proteins",[7],did not significantly influence the total expression levels
same,CC50 at 24 h,[8],~1150 µM
same,cytotoxicity,[9],no significant cytotoxicity
same,number of plaques,[10],significantly reduced the number of plaques
same,expression level of gD mRNA,[11],significantly reduced the expression level of gD mRNA
same,"levels of phosphorylated EGFR, PI3K, and Akt proteins",[12],significantly reduced
same,"activation of EGFR, PI3K and Akt proteins",[13],could not significantly influence the activation
same,protection of gD protein from protease digestion,[14],obviously protected
same,inhibitory effects against HSV-1,[15],moderate inhibitory effects
same,activation of Akt (p-Akt),[16]; 5 μM for 2 h,about 3.9 fold of normal control group
same,activation of Akt (p-Akt),[16]; 10 μM for 2 h,~2.5 fold of normal control group
same,activation of Akt (p-Akt),[16]; 20 μM for 2 h,~1.2 fold of normal control group
same,inhibition of SARS-CoV helicase protein,[1],potently inhibited
same,"virus titers, pretreatment of virus",[17]; [34],significantly reduced the virus titers
same,"virus titers, pretreatment of cells",[17]; 20 μM,did not significantly reduce virus titers
same,"virus multiplication, treatment after adsorption","[17]; 20 μM, p < 0.05",obvious inhibition on virus multiplication
same,level of phosphorylated PI3K,[18]; 5 μM for 2 h,about 1.4 fold of normal control group
same,level of phosphorylated PI3K,[18]; 10 μM for 2 h,about 1.4 fold of normal control group
same,level of phosphorylated PI3K,[18]; 20 μM for 2 h,~0.8 fold of normal control group
same,cytotoxicity,[19],no significant cytotoxicity
same,CC50 at 24 h,[20],~965 µM
same,"binding of gD to cell surface, pre-incubation of gD protein","[21]; 5, 10, 20, 40 μM, gD protein 2 μg/mL, dose-dependent",significantly reduced the binding of gD to cell surface
same,"amount of gD protein on cell surface, pretreatment of cells","[21]; 40, 20, 10, 5 μM for 1 h",did not significantly decrease the amount of gD protein on cell surface
same,brain histopathology (HE staining),"[22]; 2.5 mg·kg-1, day 4 p.i., comparable to acyclovir (10 mg·kg-1)",only had tiny hyperaemia
same,brain histopathology (HE staining),"[22]; 5 mg·kg-1, day 4 p.i.",nearly had no hyperaemia and infiltration of inflammatory cells
same,lung histopathology (HE staining),"[22]; 2.5 or 5 mg·kg-1, day 4 p.i.",intact columnar epithelium
same,survival by day 14 post infection,[22]; 2.5 or 5 mg·kg-1 intraperitoneal once daily for five days,100%
same,body weight loss during the infection,"[22]; 2.5 or 5 mg·kg-1 intraperitoneal once daily for five days, placebo up to 19%",less than 5%
same,survival rates compared to placebo-treated control group,"[22]; 2.5 or 5 mg·kg-1 intraperitoneal, p < 0.01",significantly increased survival rates
same,pulmonary virus titers,"[22]; myricetin 2.5 or 5 mg·kg-1 intraperitoneal, day 4 p.i., plaque assay, p < 0.05",significantly decreased
same,number of plaques,[23],significantly reduced the number of plaques
same,"protection of gB, gC, and gH/gL proteins from protease digestion",[24],could not protect
same,expression of ICP27,[25],significantly reduced the expression of ICP27
same,level of phosphorylated EGFR,[26]; 10 μM for 2 h,about 1.4 fold of normal control group
same,level of phosphorylated EGFR,[26]; 20 μM for 2 h,~0.8 fold of normal control group
same,Kd,[27],~0.0609 µM
same,expression level of gD mRNA,[28],significantly reduced the expression level of gD mRNA
same,virus titers in culture media,[29],significantly reduced the virus titers
same,activity of HIV reverse transcriptase,[30],inhibited the activity of HIV reverse transcriptase
same,syncytium formation,[31],markedly blocked syncytium formation
Nc1nc2c(ncn2COCCO)c(=O)[nH]1 [Acyclovir],CC50 at 24 h,[8],830 ± 40 µM
same,CC50 at 24 h,[20],898 ± 72.6 µM
same,survival by day 14 post infection,[22]; 10 mg·kg-1 intraperitoneal once daily for five days,90%
same,virus titers in lungs,[22]; [35],significant reduction of virus titers
same,virus titers in spinal cord,[22]; [35],significant reduction of virus titers
same,HSV-1 SI (CC50/IC50),[32]; HeLa cells,75.5
same,HSV-1 SI (CC50/IC50),[32]; Hep-2 cells,46.5
same,IC50,"[32]; Human alphaherpesvirus 1, HEp-2, 24 h",19.3 ± 2.2 µM
same,IC50,"[32]; Human alphaherpesvirus 1, HeLa, 24 h",11 ± 1.2 µM
same,IC50,"[32]; Human alphaherpesvirus 1, Vero, 24 h",7.4 ± 0.6 µM
same,HSV-1 SI (CC50/IC50),[32]; Vero cells,131.8
same,HSV-2 SI (CC50/IC50),[33]; HeLa cells,37.9
same,HSV-2 SI (CC50/IC50),[33]; Hep-2 cells,31.5
same,IC50,"[33]; Human alphaherpesvirus 2, HEp-2, 24 h",28.5 ± 4.3 µM
same,IC50,"[33]; Human alphaherpesvirus 2, HeLa, 24 h",21.9 ± 3.2 µM
same,IC50,"[33]; Human alphaherpesvirus 2, Vero, 24 h",11.6 ± 2.5 µM
same,HSV-2 SI (CC50/IC50),[33]; Vero cells,84.1
"O=c1c(O)c(-c2ccc(O)c(O)c2)oc2cc(O)cc(O)c12 [quercetinin, reference compound]",inhibitory effects against HSV-1,[15],moderate inhibitory effects
